Measurements: the supplement of paper PMC8617591

How the values were obtained:
[1] = tested on: Mycobacterium tuberculosis Erdman (autoluminescent); test: FIC90 (Loewe) at 90% inhibition (log2); higher = more antagonistic
Protocol: (§1)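 DiaMOND equipotent two-drug combination dose responses against autoluminescent M. tuberculosis Erdman in 8 in vitro models. Read-out is OD600, or luminescence for the intracellular and dormancy models, normalised to untreated wells. Hill-fit Einf, AUC25 and GRinf are potency metrics; FIC50 and FIC90 are Loewe-additivity fractional inhibitory concentrations, given as log2 (negative = synergy). Replicates are averaged.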

[2] = tested on: Mycobacterium tuberculosis Erdman (autoluminescent); test: Einf, fitted maximum growth inhibition of combination (fraction); higher = stronger maximal inhibition
Protocol: as §1

[3] = tested on: Mycobacterium tuberculosis Erdman (autoluminescent); test: GRinf, maximum normalised growth rate inhibition (unitless (-1 to 1)); higher = less effect (negative = killing)
Protocol: as §1

[4] = tested on: Mycobacterium tuberculosis Erdman (autoluminescent); test: AUC25, normalised area under dose response up to IC25 (fraction (0-1)); higher = more potent at low dose
Protocol: as §1

[5] = tested on: Mycobacterium tuberculosis Erdman (autoluminescent); test: FIC50 (Loewe) at 50% inhibition (log2); higher = more antagonistic
Protocol: as §1

NNC(=O)c1ccncc1 [isoniazid] + CC(=O)NC[C@H]1CN(c2ccc(N3CCOCC3)c(F)c2)C(=O)O1 [linezolid]
Settings	AUC25, [4]	Einf, [2]	FIC50, [5]	FIC90, [1]	GRinf, [3]
in vitro model: acidic pH 5.7, time point: constant (~7 days, model-specific)	0.0979	0.795	0.0411	–	-0.178
in vitro model: acidic pH 5.7, time point: terminal (~4-5 doublings, model-specific)	0.0773	0.963	0.877	0.0348	-0.173
in vitro model: intracellular J774, time point: constant = terminal	–	0.915	–	0.155	-0.0635

Settings	AUC25, [4]	Einf, [2]	FIC50, [5]	FIC90, [1]	GRinf, [3]
in vitro model: butyrate, time point: constant (~7 days, model-specific)	0.0801	0.917	0.754	0.923	0.00442
in vitro model: butyrate, time point: terminal (~4-5 doublings, model-specific)	0.0539	0.959	0.657	0.547	0.0109
in vitro model: cholesterol 0.05 mM, time point: constant (~7 days, model-specific)	0.129	0.677	0.121	–	-0.0433
in vitro model: cholesterol 0.05 mM, time point: terminal (~4-5 doublings, model-specific)	0.14	0.945	4.49	-0.681	-0.23
in vitro model: cholesterol-high 0.2 mM, time point: constant (~7 days, model-specific)	0.127	0.928	-0.123	0.0406	-0.371
in vitro model: cholesterol-high 0.2 mM, time point: terminal (~4-5 doublings, model-specific)	0.119	1	-0.0744	0.498	-0.893
in vitro model: dormancy (butyrate + nitrate, low O2), time point: constant (~7 days, model-specific)	0.0528	0.912	1.45	0.856	0.109
in vitro model: dormancy (butyrate + nitrate, low O2), time point: terminal (~4-5 doublings, model-specific)	0.0354	0.989	1.06	0.558	0.00877
in vitro model: standard 7H9 glycerol, time point: constant = terminal	0.0758	0.909	0.116	0.045	0.137
in vitro model: valerate, time point: constant (~7 days, model-specific)	0.0661	0.818	0.548	–	0.0896
in vitro model: valerate, time point: terminal (~4-5 doublings, model-specific)	0.0441	0.916	0.612	0.861	0.0931

NNC(=O)c1ccncc1 [isoniazid] + CO[C@H]1/C=C/O[C@@]2(C)Oc3c(C)c(O)c4c(O)c(c(/C=N/N5CCN(C6CCCC6)CC5)c(O)c4c3C2=O)NC(=O)/C(C)=C\C=C\[C@H](C)[C@H](O)[C@@H](C)[C@@H](O)[C@@H](C)[C@H](OC(C)=O)[C@@H]1C [rifapentine]
Settings	AUC25, [4]	Einf, [2]	FIC50, [5]	FIC90, [1]	GRinf, [3]
in vitro model: acidic pH 5.7, time point: constant (~7 days, model-specific)	0.0483	0.894	0.277	–	-0.237
in vitro model: acidic pH 5.7, time point: terminal (~4-5 doublings, model-specific)	0.0378	0.987	0.368	0.117	-0.277
in vitro model: intracellular J774, time point: constant = terminal	–	0.935	–	-0.279	-0.145

Settings	AUC25, [4]	Einf, [2]	FIC50, [5]	FIC90, [1]	GRinf, [3]
in vitro model: butyrate, time point: constant (~7 days, model-specific)	0.0724	0.903	0.471	-0.186	0.0346
in vitro model: butyrate, time point: terminal (~4-5 doublings, model-specific)	0.0522	0.951	0.425	0.159	0.0382
in vitro model: cholesterol 0.05 mM, time point: constant (~7 days, model-specific)	0.0889	0.673	0.00942	–	-0.0811
in vitro model: cholesterol 0.05 mM, time point: terminal (~4-5 doublings, model-specific)	0.0939	0.917	0.122	1.12	-0.127
in vitro model: cholesterol-high 0.2 mM, time point: constant (~7 days, model-specific)	0.0721	0.937	0.338	–	-0.348
in vitro model: cholesterol-high 0.2 mM, time point: terminal (~4-5 doublings, model-specific)	0.0611	0.998	0.562	0.57	-0.717
in vitro model: dormancy (butyrate + nitrate, low O2), time point: constant (~7 days, model-specific)	0.0529	0.926	0.188	-0.294	0.144
in vitro model: dormancy (butyrate + nitrate, low O2), time point: terminal (~4-5 doublings, model-specific)	0.0384	0.985	-0.00795	-0.177	-0.174
in vitro model: standard 7H9 glycerol, time point: constant = terminal	0.0391	0.905	0.622	0.354	0.117
in vitro model: valerate, time point: constant (~7 days, model-specific)	0.034	0.752	0.888	–	0.146
in vitro model: valerate, time point: terminal (~4-5 doublings, model-specific)	0.0276	0.928	1	1.18	-0.00496
